Measured values from US11351147B2, “Short syntheses of (−)-picrotoxinin and related compounds” (The Scripps Research Institute, priority 2020, dated 2022).
Where “and” joins values, the source holds several entries; their conditions need not be identical. Equal entries are not always repeated.

Key:
[1] = Hydrolytic stability study in pH 8 phosphate buffer (NMR monitoring); format: physicochemical; conditions: for Concentration over Time: 100 mM phosphate buffer pH=8 (D2O); for ln of concentration: pH=8 buffer
Procedure: In separate 5 mm NMR tubes, picrotoxinin (1, 1 mg) or 5-methyl picrotoxinin (20, 1 mg) were dissolved in 1 mL of 100 mM phosphate buffer (pH=8, prepared with D20). Spectra were acquired at 0, 6, 12, 24, 36, 48, 60, 72, 84, 96, and 120 h. and monitored for the amount of hydrolysis product (Table 1).

[2] = target: Rat GABAA Ion Channel; assay: Non-selective Rat GABAA Ion Channel [3H] TBOB Binding (Antagonist Radioligand) Assay; conditions: displacement of [3H] TBOB, rat cerebral cortex GABAA receptors
Procedure: A Non-selective Rat GABAA Ion Channel [3H] TBOB Binding (Antagonist Radioligand) Assay (Catalog #3817) was conducted by Eurofins Pharma Discovery Service of Eurofins Cerep, France. The assay is based on these publications: Lewin, A. H. et al. Mol. Pharmacol. 1989, 35, 189, and Schwartz, R. D.; Mindlin, M. C. J. Pharmacol. Exp. Ther. 1987, 244, 963.
Compound binding was calculated as a percentage inhibition of the binding of the radioactive ligand [3H] TBOB (t-[3H]Butylbicycloorthobenzoate) for RAT GABAA Ion Channels.
A 20.0 mM stock solution was prepared in DMSO from pure solid 5-methyl-picrotoxinin (20) to evaluate radioligand displacement of [3H] TBOB from rat cerebral cortex GABAA receptors at final concentrations of 200 μM, 63 μM, 20 μM, 6.3 μM, 2.0 μM, and 0.6 μM.

[3] = system: mice; conditions: cited from earlier work

| SMILES | Concentration over Time ([1]; 0 h) | Concentration over Time ([1]; 6 h) | Concentration over Time ([1]; 12 h) | Concentration over Time ([1]; 24 h) | Concentration over Time ([1]; 36 h) | Concentration over Time ([1]; 48 h) | Concentration over Time ([1]; 60 h) | Concentration over Time ([1]; 72 h) | Concentration over Time ([1]; 84 h) | Concentration over Time ([1]; 96 h) | Concentration over Time ([1]; 120 h) | ln of concentration ([1]; 0 h) | ln of concentration ([1]; 6 h) | ln of concentration ([1]; 12 h) | ln of concentration ([1]; 24 h) | ln of concentration ([1]; 36 h) | ln of concentration ([1]; 48 h) | ln of concentration ([1]; 60 h) | ln of concentration ([1]; 72 h) | ln of concentration ([1]; 84 h) | also measured |
| --- | --- | --- | --- | --- | --- | --- | --- | --- | --- | --- | --- | --- | --- | --- | --- | --- | --- | --- | --- | --- | --- |
| C=C(C)C1C2OC(=O)C1C1(O)C[C@H]3O[C@]34C(=O)OC2C14C (single isomer, unassigned; (-)) [compound 1, (−)-picrotoxinin] | 3420 µM | 3257 µM | 2974 µM | 2124 µM | 1879 µM | 1413 µM | 1281 µM | 1167 µM | 914.4 µM | 775.5 µM | 529.4 µM | 1.23 | 1.181 | 1.09 | 0.7534 | 0.6308 | 0.3459 | 0.2476 | 0.1546 | −0.08945 | ln of concentration ([1]; 96 h): −0.2542; ln of concentration ([1]; 120 h): −0.636; IC50 [2]: 0.2 µM; Ki [2]: 0.2 µM |
| C=C(C)C1C2OC(=O)C1(C)C1(O)C[C@H]3O[C@]34C(=O)OC2C14C (stereo partly drawn) [compound 20, 5-methylpicrotoxinin] | 3270 µM | 3000 µM | 2771 µM | 2440 µM | 2195 µM | 2031 µM | 1912 µM | 1797 µM | 1686 µM | 1643 µM | 1535 µM | 1.185 | 1.099 | 1.019 | 0.8921 | 0.786 | 0.7086 | 0.6483 | 0.586 | 0.5221 | aqueous stability compared with compound (1) ([1]; pH 8): slightly improved; pseudo-first order rate constant compared with compound (1) ([1]; pH 8): more than halving; ln of concentration ([1]; 96 h): 0.4967; ln of concentration ([1]; 120 h): 0.4287; IC50 [2]: 9.2 µM and 9 µM; Ki [2]: 8.2 µM |
| C[C@@H]1CC[C@]23OC(=O)[C@@]4(O)O[C@H](C[C@@]124)[C@@]1(O)C(=O)OC[C@@]31C [jiadifenolide] | – | – | – | – | – | – | – | – | – | – | – | – | – | – | – | – | – | – | – | – | convulsive signature [3]: no convulsive signature |
